Here are results for 9 compounds from patent USRE39198E1, “Heteroarylpiperidines, pyrrolidines and piperazines and their use as antipsychotics and analgesics” (Aventis Pharmaceuticals Inc., priority 1989, dated 2006).

The subject of data set [1] is CK-1 male mice. Nature of the data set: Climbing mouse assay (apomorphine-induced climbing). It counts as in vivo. The conditions noted are these: apomorphine 1.5 mg/kg sc challenge, climbing score vs control group set to 100%, linear regression. The method, then:
Antipsychotic activity is determined in the climbing mice assay by a method similar to those described by P. Protais, et al., Psychopharmacol., 50:1 (1976) and B. Costall, Eur. J. Pharmacol., 50:39 (1978).
Subject […] male mice (23-27 grams) are group-housed under standard laboratory conditions. The mice are individually placed in wire mesh stick cages (4″×10″) and are allowed one hour for adaption and exploration of the new environment. Then apomorphine is injected subcutaneously at 1.5 mg/kg a dose causing climbing in all subjects for 30 minutes.
For evaluation of climbing, 3 readings are taken at 10. 20, and 30 minutes after apomorphine administration according to the following scale:
Mice consistently climbing before the injection of apomorphine are discarded.
With full-developed apomorphine climbing, the animals are hanging on to the cage walls, rather motionless, over long periods of time. By contrast, climbs due to mere motor stimulation usually only last a few seconds.
The climbing scores are individually totaled (maximal score: 6 per mouse over 3readings) and the total score of the control group (vehicle intraperitoneally-apomorphine subcutaneously) is set to 100%.

Data set [2] has as its system mice. Nature of the data set: Phenyl p-quinone writhing assay in mice. It counts as in vivo. The conditions noted are these: dose effecting approximately 50% inhibition of writhing in mice. An excerpt:
Some of the compounds of the present invention are also useful as analgetics due so their ability to alleviate pain in mammals. […] Exptl. Biol. Med., 95:729 (1937). Thus, for instance the subcutaneous dose effecting an approximately 50% inhibition of writhing (ED50) in mice produced in this assay is as shown in Table 2.

“6-Fluoro-3-[1-[3-[(isoquinol-5-yl)oxy]propyl]-4-piperidinyl]-1,2-benzisoxazole sesquifumarate”: the “CLIMBING MOUSE ASSAY (ED50 mg/kg, ip)” value in data set [1] is recorded as 0.172 mg/kg.
For the compound `CC(=O)c1ccc(CCCCN2CCC(c3noc4cc(F)ccc34)CC2)cc1` [1-[4-(4′-Acetophenyl)butyl]-4-(6-fluoro-1,2-benzisoxazol-3-yl)piperidine], the “CLIMBING MOUSE ASSAY (ED50 mg/kg, ip)” value in data set [1] came to 0.34 mg/kg.
On to `COc1cc(C(C)=O)ccc1OCCCN1CCC(c2noc3ccccc23)CC1` [1-[4-[3-[4-(1,2-Benzisoxazol-3-yl)-1-piperadinyl]propoxyl]-3-methoxyphenyl]ethanone], for which the “CLIMBING MOUSE ASSAY (ED50 mg/kg, ip)” value in data set [1] came to 0.67 mg/kg. For the same compound, in data set [2], the “INHIBITION OF PHENYLQUINONE INDUCED WRITHING ED50 mg/kg, sc” value turned out to be 0.17 mg/kg.
The corresponding values for `COc1cc(C(C)=O)ccc1OCCCN1CCC(c2noc3cc(F)ccc23)CC1` [1-[4-[3-[4-(6-Fluoro-1,2-benzisoxazol-3-yl)-1-piperadinyl]propoxy]-3-methoxyphenyl]ethanone] are 0.095 mg/kg and 0.03 mg/kg.
For the compound `COc1cc(C(C)O)ccc1OCCCCN1CCC(c2noc3ccccc23)CC1` (stereo not drawn) [1-[4-[4-[4-(1,2-Benzisoxazol-3-yl)-1-piperidinyl]butoxy]-3-methoxyphenyl]ethanol], the melting point fell in the range of 99 to 101 °C. This compound also had an ED50 in data set [1] (Mus musculus, ip) of 1.6 mg/kg.
Regarding `COc1cc(C(C)=O)ccc1OCCCCN1CCC(c2noc3cc(F)ccc23)CC1` [1-[4-[4-[4-(6-Fluoro-1,2-benzisoxazol-3-yl)-1-piperidinyl)butoxy]-3-methoxyohenylethanone], the “CLIMBING MOUSE ASSAY (ED50 mg/kg, ip)” value in data set [1] worked out at 0.68 mg/kg.
Turning to `Fc1ccc2c(C3CCN(CCC4COc5ccccc5O4)CC3)noc2c1` (stereo not drawn) [2-[4-(6-Fluoro-1,2-benzisoxazol-3-yl)-1-piperidinyl]ethyl]-1,4-benzodioxan], the “CLIMBING MOUSE ASSAY (ED50 mg/kg, ip)” value in data set [1] is given as 0.29 mg/kg.
With `Cc1ccc2c(c1)C(=O)N(CCN1CCC(c3noc4cc(F)ccc34)CC1)C2=O` [Example 157, N-[2-[4-(6-Fluoro-1,2-benzisoxazol-3-yl)-1-piperidinyl]ethyl]-4-methylphthalimide], the melting point is 138 to 140 °C.
The same measure, in the same setting: the figure for `O=C1c2ccccc2C(=O)N1CCN1CCC(c2noc3cc(F)ccc23)CC1` [N-[2-[4-(6-Fluoro-1,2-benzisoxazol-3-yl)-1-piperidinyl]ethyl]phthalimide] is 148 to 149 °C.
